Test results from patent US6632793B1, “Immunological activity for a peptide of the limulus anti-LPS factor” (Centro de Ingenieria Genetica y Biotecnologia, priority 1997, dated 2003).

Columns and labels:
Assay type in all cases: cell-based
[1] = test system: TNFα from human mononuclear cells; assay: TNF-α synthesis by human mononuclear cells (ELISA of supernatant); settings: 18 h, mean of three donors
Protocol: Venous blood was obtained from healthy volunteers and Ficoll-Hypaque centrifugation, fractionated mononuclear cells. The mononuclear cells were washed and resuspended in endotoxic-free RPMI 1640 medium supplemented with 10% fetal calf serum. 30×10^6 cells were aliquoted into plates p-60 (Nunc, Denmark). The cells were incubated with 14 or 28 μg/ml LALF at 37° C. for 18 hours in 5% CO2 and then centrifuged at 3000 rpm during 5 min. The synthesis of TNFα in the supernatant was determined by specific enzyme-linked immunoadsorbent assay (ELISA), kindly provided by Dr. W. Buurman (University Hospital Maastrich, The Netherlands).

human mononuclear cells = assay: Antiviral effect on Hep-2 cells of supernatant from human mononuclear cells stimulated with peptide; settings: for Antiviral effect of supernatant, 1: supernatant on Hep-2, experiment 1; for Antiviral effect of supernatant, 2: supernatant on Hep-2, experiment 2; for Antiviral effect of supernatant, 3: supernatant on Hep-2, experiment 3; for Antiviral effect of supernatant, Mean: supernatant on Hep-2, mean of 3
Protocol: (§1) Then the cells were washed with saline solution and infected with […] of Mengo virus, provide by Institute of Molecular Biology, University of Zurich, which is multiplied in the cell line L929 murine fibroblasts. 18 h later degree of cell destruction was measured by fixation and staining, generally with crystal violet, for reading of cytophatic effect was used a photometer Ultramicroanalytical System (SUMA). A computer program in Pascal UCSD language for the microcomputer system was developed for all calculations and corrections (Ferrero et al., 1994, Biotecnologia Aplicada. Vol. 1:). In this case serial dilution's of human γ-IFN 70 000 IU/ml (MRI, Freeze-dried Reference Human Recombinant Gamma Interferon) was used as standard in order to define unit of antiviral activity. For this reason the antiviral protection shown by the peptide is related to International Units of γ-IFN (Ul/ml). As a negative control were used different peptides from proteins that bind endotoxin. LPS at 10 ng/ml was used as a positively control because is well known that it induced the production of IFNs (Manthey et al., 1994, J. Immunology. Vol. 153: 2653-2663). One unit of antiviral activity is define as the quantity of IFN able to produce an 50% inhibition of the viral replication.
Venous blood was obtained from healthy volunteers and Ficoll-Hypaque centrifugation, fractionated mononuclear cells. The mononuclear cells were washed and resuspended in endotoxin-free RPMI-1640 culture medium supplemented with 10% fetal calf serum. Concentration of 2×10^6 cells/ml were aliquoted into 24-well microtiter plates (Nunc, Denmark). The cells were then incubated with 14 and 28 μg/ml of different peptides: Limulus anti-LPS factor31-52 (LALF), Lipopolysaccharide Binding Protein86-99 (LBP) and 18 kDa Cationic Antimicrobial Protein108-128 (CAP-18), at 37° C. for 18 hours in 5% CO2. The cells were centrifuged at 3000 rpm for 5 min and then serial dilutions of supematants were assays for antiviral activity using the procedures described in the example 2.

[2] = test system: Mengo virus on cell line Hep-2; assay: Antiviral effect: inhibition of the cytopathic effect of Mengo virus on cell line Hep-2; settings: 24 h pre-incubation; for Antiviral effect, 1: experiment 1; for Antiviral effect, 2: experiment 2; for Antiviral effect, 3: experiment 3; for Antiviral effect, Mean: mean of 3
Protocol: as §1

[3] = mononuclear cells stimulated with 14 μg/ml for 18 h
[4] = mononuclear cells stimulated with 28 μg/ml for 18 h

Which results are given for CAP-18 [reference compound]?
TNF - α ([1]; 14 μg/ml): 0.76 ng/mL; TNF - α ([1]; 28 μg/ml): 0.75 ng/mL; Antiviral effect of supernatant, 1 (human mononuclear cells; [3]): 7.8 IU/ml γ-IFN; Antiviral effect of supernatant, 2 (human mononuclear cells; [3]): 8 IU/ml γ-IFN; Antiviral effect of supernatant, 3 (human mononuclear cells; [3]): 11 IU/ml γ-IFN; Antiviral effect of supernatant, Mean (human mononuclear cells; [3]): 8.93 IU/ml γ-IFN; Antiviral effect of supernatant, 1 (human mononuclear cells; [4]): 8.2 IU/ml γ-IFN; Antiviral effect of supernatant, 2 (human mononuclear cells; [4]): 9 IU/ml γ-IFN; Antiviral effect of supernatant, 3 (human mononuclear cells; [4]): 9.6 IU/ml γ-IFN; Antiviral effect of supernatant, Mean (human mononuclear cells; [4]): 8.93 IU/ml γ-IFN; Antiviral effect, 1 ([2]; Hep-2, 14 μg/ml): 9 IU/ml γ-IFN; Antiviral effect, 2 ([2]; Hep-2, 14 μg/ml): 8.7 IU/ml γ-IFN; Antiviral effect, 3 ([2]; Hep-2, 14 μg/ml): 9.2 IU/ml γ-IFN; Antiviral effect, Mean ([2]; Hep-2, 14 μg/ml): 8.9 IU/ml γ-IFN; Antiviral effect, 1 ([2]; Hep-2, 28 μg/ml): 12.2 IU/ml γ-IFN; Antiviral effect, 2 ([2]; Hep-2, 28 μg/ml): 9 IU/ml γ-IFN; Antiviral effect, 3 ([2]; Hep-2, 28 μg/ml): 9 IU/ml γ-IFN; Antiviral effect, Mean ([2]; Hep-2, 28 μg/ml): 10.9 IU/ml γ-IFN
